{"source": "patent US7230007B2", "about": "“Derivatives of 3-(Guanidinocarbonyl) heterocycle, methods of preparation and intermediates thereof, their use as medicaments, and pharmaceutical compositions therefrom” (Sanofi-Aventis Deutschland GmbH, priority 2003, dated 2007)", "key": {"NHE1": {"biological_target": "T1, NHE1 (Homo sapiens, UniProt P19634)", "T1 construct": "expressed in transfected cells", "T1 sequence (P19634 whole entry, species assumed)": "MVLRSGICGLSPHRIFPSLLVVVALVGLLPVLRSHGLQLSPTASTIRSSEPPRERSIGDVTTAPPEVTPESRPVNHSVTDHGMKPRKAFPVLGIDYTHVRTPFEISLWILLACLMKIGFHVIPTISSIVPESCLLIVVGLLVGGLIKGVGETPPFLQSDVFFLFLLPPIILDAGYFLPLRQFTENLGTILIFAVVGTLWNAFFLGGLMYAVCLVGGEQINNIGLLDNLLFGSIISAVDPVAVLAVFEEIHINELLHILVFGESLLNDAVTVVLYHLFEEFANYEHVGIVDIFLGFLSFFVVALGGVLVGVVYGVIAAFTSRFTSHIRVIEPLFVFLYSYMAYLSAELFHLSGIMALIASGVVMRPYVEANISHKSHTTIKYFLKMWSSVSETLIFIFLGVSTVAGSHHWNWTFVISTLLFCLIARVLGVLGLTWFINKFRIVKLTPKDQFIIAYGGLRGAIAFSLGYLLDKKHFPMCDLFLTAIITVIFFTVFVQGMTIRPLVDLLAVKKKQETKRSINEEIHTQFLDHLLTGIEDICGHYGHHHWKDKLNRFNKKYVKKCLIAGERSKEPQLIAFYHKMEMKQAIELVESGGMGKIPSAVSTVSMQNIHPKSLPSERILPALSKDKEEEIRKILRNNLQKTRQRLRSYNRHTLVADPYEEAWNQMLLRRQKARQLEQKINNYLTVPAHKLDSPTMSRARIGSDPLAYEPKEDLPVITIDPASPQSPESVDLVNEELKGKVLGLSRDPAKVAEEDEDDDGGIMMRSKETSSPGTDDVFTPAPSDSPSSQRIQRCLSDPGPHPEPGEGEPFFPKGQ", "test": "NHE inhibition FLIPR test (intracellular pH recovery, BCECF)", "type": "cell-based", "details": "transfected LAP-1 cell line expressing NHE1 subtype, pHi recovery after acidification", "method": "The NHE inhibitory activities (IC50 values) of the compounds according to the invention were determined by a FLIPR test.\nThe test is performed in the FLIPR (Fluorescent Imaging Plate Reader) equipped with clear-bottomed and black-walled 96-well microtitration plates.\nThe growth medium for the transfected cells (Iscove+10% foetal calf serum) also comprises G418 as selection antibiotic to ensure the presence of transfected sequences.\nThe actual test begins by eliminating the growth medium and adding 100 μl of loading buffer per well (5 μM of BCECF-AM [2′,7′-bis(2-carboxyethyl)-5-(6)-carboxyfluoresceine acetoxymethyl ester] in 20 mM of NH4Cl, 115 mM of choline chloride, 1 mM of CaCl2, 5 mM of KCl, 20 mM of HEPES and 5 mM of glucose; pH 7.4 (adjusted with KOH). The cells are then incubated for 20 minutes at 37° C. This incubation results in the loading of the fluorescent dye into the cells, the fluorescence intensity of which depends on the pHi, and on the NH4Cl, which results in a slight basification of the cells.\nThe precursor BCECF-AM, a non-fluorescent dye, is, as an ester, capable of crossing the membrane. The actual dye, which is incapable of crossing the membrane, is released inside the cell by esterases.\nAfter this 20-minute incubation, the loading buffer, which comprises NH4Cl and free BCECF-AM, is removed by washing three times in the cell washing device (Tecan Columbus), each wash being performed with 400 μl of washing buffer (133.8 mM of choline chloride, 4.7 mM of KCl, 1.25 mM of MgCl2,1.25 mM of CaCl2, 0.97 mM of K2HPO4, 0.23 mM of KH2PO4, 5 mM of HEPES and 5 mM of glucose; pH 7.4 (adjusted with KOH)). The residual volume remaining in the wells is 90 μl (possibly between 50 and 125 μl). This washing step removes the free BCECF-AM and results in an intracellular acidification (pHi of 6.3–6.4) due to the removal of the external ammonium ions.\nAs the equilibrium of the intracellular ammonium with the aqueous ammonia and the protons, by removal of the extracellular ammonium and by the subsequent immediate crossing of the aqueous ammonia across the cell membrane, is disrupted, the washing process results in intracellular protons remaining, which is the cause of the intracellular acidification. This acidification can result finally in the death of the cells if it lasts long enough. It is important here for the washing buffer to be free of sodium (<1 mM), otherwise the extracellular sodium ions would result in an immediate increase in the pHi on account of the activity of the cloned NHE isoforms. It is also important for all the buffers used (loading buffer, washing buffer and regeneration buffer) not to contain any HCO3^− ions, otherwise the presence of bicarbonate would result in the activation of bicarbonate-dependent systems that disrupt the pHi regulation, which systems are contained in the LAP-1 parental cell line.\nThe microtiter plates containing acidified cells are then transferred (up to 20 minutes after the acidification) to the FLIPR. In the FLIPR, the intracellular fluorescent dye is activated with light of a wavelength of 488 nm, which is generated by an argon laser, and the measuring parameters (laser power, illumination time and diaphragm of the […] camera integrated into the FLIPR) are chosen such that the average value of the fluorescent signal per well is between 30,000 and 35,000 relative fluorescence units.\nThe actual measurement in the FLIPR starts with a photograph being taken by the CCD camera every two seconds under software control. After 10 seconds, the increase in the intracellular pH is initiated by adding 90 μl. of regeneration buffer (133.8 mM of NaCl, 4.7 mM of KCl, 1.25 mM of MgCl2, 1.25 mM of CaCl2, 0.97 mM of K2HPO4, 0.23 mM of KH2PO4, 10 mM of HEPES and 5 mM of glucose; pH 7.4 (adjusted with NaOH)) using a 96-well pipette device incorporated into the FLIPR. Some wells, to which is added pure regeneration buffer, serve as positive controls (100% NHE activity). […]"}}, "note": "Where a name gives a salt, the structure may show the parent alone.", "data": [{"compound": "CS(=O)(=O)c1ccc(-n2cc(C(=O)NC(=N)N)c3cccnc32)cc1", "note": "(as salt: hydrochloride) [Example 6, N-[1-(4-(Methylsulfonyl)phenyl)-1H-pyrrolo[2,3-b]pyridine-3-carbonyl]guanidine hydrochloride]", "values": [{"measurement": "melting point", "result": "266 to 270", "unit": "°C"}]}, {"compound": "N=C(N)NC(=O)c1cn(-c2ccnc3ccccc23)c2ncccc12", "note": "[Example 1, N-[1-(Quinolin-4-yl)-1H-pyrrolo[2,3-b]pyridine-3-carbonyl]guanidine]", "values": [{"measurement": "melting point", "result": 164, "unit": "°C"}, {"measurement": "IC50", "setting": "NHE1", "result": 3, "unit": "nM"}]}, {"compound": "N=C(N)NC(=O)c1cn(-c2ccncc2)c2ncccc12", "note": "[Example 2, N-[1-(Pyridin-4-yl)-1H-pyrrolo[2,3-b]pyridine-3-carbonyl]guanidine]", "values": [{"measurement": "melting point", "result": 210, "unit": "°C"}, {"measurement": "IC50", "setting": "NHE1", "result": 10, "unit": "nM"}]}, {"compound": "N=C(N)NC(=O)c1cn(-c2nccc3ccccc23)c2ncccc12", "note": "[Example 3, N-[1-(Isoquinolin-1-yl)-1H-pyrrolo[2,3-b]pyridine-3-carbonyl]guanidine]", "values": [{"measurement": "IC50", "setting": "NHE1", "result": 15, "unit": "nM"}]}, {"compound": "N=C(N)NC(=O)c1cn(-c2ccc3ccccc3n2)c2ncccc12", "note": "[Example 4, N-[1-(Quinolin-2-yl)-1H-pyrrolo[2,3-b]pyridine-3-carbonyl]guanidine]", "values": [{"measurement": "IC50", "setting": "NHE1", "result": 6240, "unit": "nM"}]}, {"compound": "Cl.N=C(N)NC(=O)c1cn(-c2ccccn2)c2ncccc12", "note": "[Example 5, N-[1-(Pyridin-2-yl)-1H-pyrrolo[2,3-b]pyridine-3-carbonyl]guanidine hydrochloride]", "values": [{"measurement": "melting point", "result": "205 to 207", "unit": "°C"}, {"measurement": "IC50", "setting": "NHE1", "result": 18, "unit": "nM"}]}, {"compound": "CS(=O)(=O)c1ccc(-n2cc(C(=O)NC(=N)N)c3cccnc32)cc1", "note": "[Example 6, N-[1-(4-(Methylsulfonyl)phenyl)-1H-pyrrolo[2,3-b]pyridine-3-carbonyl]guanidine hydrochloride]", "values": [{"measurement": "IC50", "setting": "NHE1", "result": 3760, "unit": "nM"}]}, {"compound": "CN(C)c1cccc(-n2cc(C(=O)NC(=N)N)c3cccnc32)c1", "note": "[Example 7, N-[1-(3-(Dimethylamino)phenyl)-1H-pyrrolo[2,3-b]pyridine-3-carbonyl]guanidine]", "values": [{"measurement": "IC50", "setting": "NHE1", "result": 3, "unit": "nM"}]}, {"compound": "Cc1cc(-n2cc(C(=O)NC(=N)N)c3cccnc32)c2ccccc2n1", "note": "[Example 8, N-[1-(2-Methylquinolin-4-yl)-1H-pyrrolo[2,3-b]pyridine-3-carbonyl]guanidine hydrochloride]", "values": [{"measurement": "IC50", "setting": "NHE1", "result": 26, "unit": "nM"}]}, {"compound": "Cn1ccc2c(-n3cc(C(=O)NC(=N)N)c4cccnc43)ncnc21", "note": "[Example 9, N-[1-(7-Methyl-7H-pyrrolo[2,3-d]pyrimidin-4-yl)-1H-pyrrolo[2,3-b]pyridine-3-carbonyl]-guanidine]", "values": [{"measurement": "melting point", "result": "> 260", "unit": "°C"}, {"measurement": "IC50", "setting": "NHE1", "result": 37, "unit": "nM"}]}, {"compound": "N=C(N)NC(=O)c1cn(-c2cc(O)nc3ccccc23)c2ncccc12", "note": "[Example 10, N-[1-(2-Hydroxy-quinolin-4-yl)-1H-pyrrolo[2,3-b]pyridine-3-carbonyl]-guanidine]", "values": [{"measurement": "IC50", "setting": "NHE1", "result": 660, "unit": "nM"}]}]}
